In US8497307B2, “Aryl guanidine F1F0-ATPase inhibitors and related methods” (The Regents of the University of Michigan, priority 2008, dated 2013):

tested on: Ramos cells; experiment: Cytotoxicity in Ramos cells (cell death); type: cell-based
Protocol: The compounds listed in Table 7 were tested for cytotoxicity in Ramos cells. The assay was conducted as described in K. M. Johnson et al. Chemistry & Biology 2005, 12, 485-496.

Row | Compound | EC50
1 | O=C(N=C(Nc1cc(Cl)cc(Cl)c1)Nc1ccc2[nH]c(=O)oc2c1)c1ccc(C(F)(F)F)cc1 [Compound I-125] | < 10 µM
2 | CC(C)(C)c1ccccc1NC(=NC(=O)c1ccc(C#N)cc1)Nc1ccc2[nH]c(=O)oc2c1 [Compound I-103] | < 10 µM
3 | CC(C)(C)c1ccccc1NC(=NC(=O)c1ccc(Br)cc1)Nc1ccc2[nH]c(=O)oc2c1 [Compound I-21] | < 10 µM
4 | CC(C)(C)c1ccccc1NC(=NC(=O)c1cccc(Cl)c1)Nc1ccc2[nH]c(=O)oc2c1 [Compound I-23] | < 10 µM
5 | O=C(N=C(Nc1cccc(Cl)c1)Nc1ccc2[nH]c(=O)oc2c1)c1ccc(Cl)cc1 [Compound I-91] | < 10 µM
6 | O=C(N=C(Nc1ccc2ccccc2c1)Nc1ccc2[nH]c(=O)oc2c1)c1ccc(Cl)cc1 [Compound I-26] | < 10 µM
7 | O=C(N=C(Nc1ccc(-c2ccccc2)cc1)Nc1ccc2[nH]c(=O)oc2c1)c1ccc(Br)cc1 [Compound I-29] | < 10 µM
8 | O=C(N=C(Nc1ccc2[nH]c(=O)oc2c1)Nc1ccccc1Cl)c1ccc(C(F)(F)F)cc1 [Compound I-93] | < 10 µM
9 | O=C(N=C(Nc1ccc2ccccc2c1)Nc1ccc2[nH]ncc2c1)c1cccc(Cl)c1 [II-11] | < 10 µM
10 | N#Cc1cccc(C(=O)N=C(Nc2ccc(C(F)(F)F)cc2)Nc2ccc3[nH]c(=O)oc3c2)c1 [Compound I-118] | > 10 µM
11 | CC(C)(C)c1ccccc1NC(=NC(=O)c1ccc(F)cc1)Nc1ccc2[nH]c(=O)[nH]c2c1 [Compound I-8] | < 10 µM
12 | O=C(N=C(Nc1cccc(C(F)(F)F)c1)Nc1ccc2[nH]ncc2c1)c1ccc(C(F)(F)F)cc1 [II-17] | < 10 µM
13 | CC(C)(C)c1ccccc1NC(=NC(=O)c1ccc(Br)cc1)NCCc1c[nH]cn1 [III-4] | < 10 µM
14 | O=C(N=C(Nc1ccc2[nH]ncc2c1)Nc1ccccc1C(F)(F)F)c1ccc(Cl)cc1 [II-2] | < 10 µM
15 | N#Cc1cccc(C(=O)N=C(Nc2ccc3[nH]c(=O)oc3c2)Nc2ccccc2C2CC2)c1 [Compound I-112] | < 10 µM
16 | O=C(N=C(Nc1ccc(-c2ccccc2)cc1)Nc1ccc2[nH]ncc2c1)c1cccc(Cl)c1 [II-15] | < 10 µM
17 | O=C(N=C(Nc1ccc2[nH]c(=O)oc2c1)Nc1ccccc1C(F)(F)F)c1ccc(Cl)cc1 [Compound I-18] | < 10 µM
18 | CC(C)(C)c1cccc(NC(=NC(=O)c2ccc(C(F)(F)F)cc2)Nc2ccc3[nH]c(=O)oc3c2)c1 [Compound I-120] | < 10 µM
19 | O=C(N=C(Nc1ccc2[nH]c(=O)[nH]c2c1)Nc1ccccc1C(F)(F)F)c1cccc(Cl)c1 [Compound I-3] | > 10 µM

Row | Compound | EC50
20 | CC(C)(C)c1ccccc1NC(=NC(=O)c1ccc(F)cc1)Nc1ccc2[nH]ncc2c1 [II-8] | < 10 µM
21 | O=C(N=C(NCCc1c[nH]cn1)Nc1ccc2ccccc2c1)c1ccc(F)cc1 [III-11] | > 10 µM
22 | N#Cc1cccc(C(=O)N=C(Nc2cccc(C(F)(F)F)c2)Nc2ccc3[nH]c(=O)oc3c2)c1 [Compound I-102] | < 10 µM
23 | O=C(N=C(Nc1ccc(-c2ccccc2)cc1)Nc1ccc2[nH]ncc2c1)c1ccc(Cl)cc1 [II-14] | < 10 µM
24 | O=C(N=C(NCCc1c[nH]cn1)Nc1ccccc1C(F)(F)F)c1ccc(Br)cc1 [III-1] | > 10 µM
25 | O=C(N=C(Nc1ccc2[nH]c(=O)oc2c1)Nc1ccccc1C(F)(F)F)c1cccc(Cl)c1 [Compound I-19] | < 10 µM
26 | O=C(N=C(Nc1ccc(Cl)cc1)Nc1ccc2[nH]ncc2c1)c1ccc(Cl)cc1 [II-22] | < 10 µM
27 | O=C(N=C(Nc1ccc2ccccc2c1)Nc1ccc2[nH]c(=O)[nH]c2c1)c1ccc(F)cc1 [Compound I-12] | > 10 µM
28 | CC(C)(C)c1ccccc1NC(=NC(=O)c1ccc(C(F)(F)F)cc1)Nc1ccc2[nH]ncc2c1 [II-18] | < 10 µM
29 | O=C(N=C(Nc1ccc2[nH]c(=O)[nH]c2c1)Nc1ccccc1C(F)(F)F)c1ccc(Cl)cc1 [Compound I-2] | > 10 µM
30 | N#Cc1cccc(C(=O)N=C(Nc2cc(Cl)cc(Cl)c2)Nc2ccc3[nH]c(=O)oc3c2)c1 [Compound I-116] | > 10 µM
31 | N#Cc1ccc(C(=O)N=C(Nc2ccc3[nH]c(=O)oc3c2)Nc2ccccc2C(F)(F)F)cc1 [Compound I-104] | < 10 µM
32 | CC(C)(C)c1ccccc1NC(=NC(=O)c1cccc(C#N)c1)Nc1ccc2oc(=O)[nH]c2c1 [Compound I-130] | > 10 µM
33 | CC(C)(C)c1ccccc1NC(=NC(=O)c1cccc(C#N)c1)Nc1ccc2[nH]c(=O)oc2c1 [Compound I-100] | < 10 µM
34 | O=C(N=C(Nc1ccc(Cl)cc1)Nc1ccc2[nH]c(=O)oc2c1)c1ccc(Cl)cc1 [Compound I-90] | > 10 µM
35 | CC(C)(C)c1ccccc1NC(=NC(=O)c1ccc(F)cc1)NCCc1c[nH]cn1 [III-7] | > 10 µM
36 | O=C(N=C(NCCc1c[nH]cn1)Nc1ccc2ccccc2c1)c1ccc(Br)cc1 [III-8] | < 10 µM
37 | CC(C)(C)c1ccccc1NC(=NC(=O)c1ccc(F)c(F)c1)Nc1ccc2[nH]c(=O)oc2c1 [Compound I-98] | < 10 µM
38 | O=C(N=C(NCCc1c[nH]cn1)Nc1ccccc1C(F)(F)F)c1ccc(Cl)cc1 [III-2] | > 10 µM
